Assay results taken from patent US9611249B2, “1H-indazole-3-carboxamide compounds as glycogen synthase kinase 3 beta inhibitors” (AZIENDE CHIMICHE RIUNITE ANGELINI FRANCESCO A.C.R.A.F. …, priority 2012, dated 2017).

How the values were obtained:
Format in all cases: biochemical
[1] = target: EphA4 kinase (h) (Homo sapiens (Human), UniProt P54764); assay: Kinase selectivity panel: EphA4 kinase (h); details: 10 μM in duplicate, read-out: % inhibition of control values
Procedure: (§1) (a) Compounds 1 and 2 were tested against a panel of 60 kinases in order to assess their selectivity. The assays were chosen taking into consideration the diversity of assay families.
(§2) Tested kinases were representative of following kinase sub-families: • protein-serine/threonine kinases; • protein-tyrosine kinases; • other kinases; and • atypical kinases.
(§3) Human recombinant kinases were incubated in the presence of specific peptide substrates plus ATP for different times (10, 15, 30, 60 or 90 minutes) at 22° C. Phosphorylated substrate was detected by LANCE or HTRF technology (CISBIO, MA, USA). The compounds were tested at 10 μM in duplicate.
(§4) The results are expressed as a percentage of inhibition of control specific activity obtained in the presence of the test compounds and are reported in the following Table 5.
(§5) (b) Compounds 3, 8, 29 and 31 were tested against the same panel of 60 kinases under the same conditions described above for compounds 1 and 2.
(§6) The results are expressed as a percent of inhibition of control specific activity obtained in the presence of the test compounds and are reported in the following Table 6.

[2] = target: FGFR1 kinase (h) (Homo sapiens (Human), UniProt P11362); assay: Kinase selectivity panel: FGFR1 kinase (h); details: 10 μM in duplicate, read-out: % inhibition of control values
Procedure: as §1, §2, §3, §4, §5, §6

[3] = target: FGFR4 kinase (h) (Homo sapiens (Human), UniProt P22455); assay: Kinase selectivity panel: FGFR4 kinase (h); details: 10 μM in duplicate, read-out: % inhibition of control values
Procedure: as §1, §2, §3, §4, §5, §6

[4] = target: IGF1R kinase (h) (Homo sapiens (Human), UniProt P08069); assay: Kinase selectivity panel: IGF1R kinase (h); details: 10 μM in duplicate, read-out: % inhibition of control values
Procedure: as §1, §2, §3, §4, §5, §6

[5] = target: Ret kinase (h) (Homo sapiens (Human), UniProt P07949); assay: Kinase selectivity panel: Ret kinase (h); details: 10 μM in duplicate, read-out: % inhibition of control values
Procedure: as §1, §2, §3, §4, §5, §6

[6] = target: JAK2 (h) (Homo sapiens (Human), UniProt O60674); assay: Kinase selectivity panel: JAK2 (h); details: 10 μM in duplicate, read-out: % inhibition of control values
Procedure: as §1, §2, §3, §4, §5, §6

[7] = target: Fyn kinase (h) (Homo sapiens (Human), UniProt P06241); assay: Kinase selectivity panel: Fyn kinase (h); details: 10 μM in duplicate, read-out: % inhibition of control values
Procedure: as §1, §2, §3, §4, §5, §6

[8] = target: Src kinase (h) (Homo sapiens (Human), UniProt P12931); assay: Kinase selectivity panel: Src kinase (h); details: 10 μM in duplicate, read-out: % inhibition of control values
Procedure: as §1, §2, §3, §4, §5, §6

[9] = target: GSK3beta (h) (Homo sapiens (Human), UniProt P49841); assay: Kinase selectivity panel: GSK3beta (h); details: GSK3beta (h); 10 μM in duplicate; read-out: % inhibition of control values
Procedure: as §1, §2, §3, §4, §6

[10] = target: DYRK1a (h) (Homo sapiens (Human), UniProt Q13627); assay: Kinase selectivity panel: DYRK1a (h); details: 10 μM in duplicate, read-out: % inhibition of control values
Procedure: as §1, §2, §3, §4, §5, §6

[11] = target: PCTAIRE1 kinase (h) (Homo sapiens (Human), UniProt Q00536); assay: Kinase selectivity panel: PCTAIRE1 kinase (h); details: 10 μM in duplicate, read-out: % inhibition of control values
Procedure: as §1, §2, §3, §4, §5, §6

[12] = target: CDC2/CDK1 (h) (cycB) (Homo sapiens (Human), UniProt P06493); assay: Kinase selectivity panel: CDC2/CDK1 (h) (cycB); details: 10 μM in duplicate, read-out: % inhibition of control values
Procedure: as §1, §2, §3, §4, §5, §6

[13] = target: CDK2 (h) (cycA) (Homo sapiens (Human), UniProt P24941); assay: Kinase selectivity panel: CDK2 (h) (cycA); details: 10 μM in duplicate, read-out: % inhibition of control values
Procedure: as §1, §2, §3, §4, §5, §6

[14] = target: CDK5/p35 (h) (Homo sapiens (Human), UniProt Q00535); assay: Kinase selectivity panel: CDK5/p35 (h); details: 10 μM in duplicate, read-out: % inhibition of control values
Procedure: as §1, §2, §3, §4, §5, §6

[15] = target: p38alpha kinase (h) (Homo sapiens (Human), UniProt Q16539); assay: Kinase selectivity panel: p38alpha kinase (h); details: 10 μM in duplicate, read-out: % inhibition of control values
Procedure: as §1, §2, §3, §4, §5, §6

[16] = target: p38delta kinase (h) (Homo sapiens (Human), UniProt O15264); assay: Kinase selectivity panel: p38delta kinase (h); details: 10 μM in duplicate, read-out: % inhibition of control values
Procedure: as §1, §2, §3, §4, §5, §6

[17] = target: CHK1 (h) (Homo sapiens (Human), UniProt O14757); assay: Kinase selectivity panel: CHK1 (h); details: 10 μM in duplicate, read-out: % inhibition of control values
Procedure: as §1, §2, §3, §4, §5, §6

[18] = target: CaMK4 (h) (Homo sapiens (Human), UniProt Q16566); assay: Kinase selectivity panel: CaMK4 (h); details: 10 μM in duplicate, read-out: % inhibition of control values
Procedure: as §1, §2, §3, §4, §5, §6

[19] = target: DAPK1 (h) (Homo sapiens (Human), UniProt P53355); assay: Kinase selectivity panel: DAPK1 (h); details: 10 μM in duplicate, read-out: % inhibition of control values
Procedure: as §1, §2, §3, §4, §5, §6

[20] = target: Pim2 kinase (h) (Homo sapiens (Human), UniProt Q9P1W9); assay: Kinase selectivity panel: Pim2 kinase (h); details: 10 μM in duplicate, read-out: % inhibition of control values
Procedure: as §1, §2, §3, §4, §5, §6

[21] = target: MNK2 (h) (Homo sapiens (Human), UniProt Q9HBH9); assay: Kinase selectivity panel: MNK2 (h); details: 10 μM in duplicate, read-out: % inhibition of control values
Procedure: as §1, §2, §3, §4, §5, §6

[22] = target: PhKgamma 2 (h) (Homo sapiens (Human), UniProt P15735); assay: Kinase selectivity panel: PhKgamma 2 (h); details: 10 μM in duplicate, read-out: % inhibition of control values
Procedure: as §1, §2, §3, §4, §5, §6

[23] = target: PDK1 (h) (Homo sapiens (Human), UniProt O15530); assay: Kinase selectivity panel: PDK1 (h); details: 10 μM in duplicate, read-out: % inhibition of control values
Procedure: as §1, §2, §3, §4, §5, §6

[24] = target: PKCbeta 1 (h) (Homo sapiens (Human), UniProt P05771); assay: Kinase selectivity panel: PKCbeta 1 (h); details: 10 μM in duplicate, read-out: % inhibition of control values
Procedure: as §1, §2, §3, §4, §5, §6

[25] = target: PKCgamma (h) (Homo sapiens (Human), UniProt P05129); assay: Kinase selectivity panel: PKCgamma (h); details: 10 μM in duplicate, read-out: % inhibition of control values
Procedure: as §1, §2, §3, §4, §5, §6

[26] = target: PAK1 (h) (Homo sapiens (Human), UniProt Q13153); assay: Kinase selectivity panel: PAK1 (h); details: 10 μM in duplicate, read-out: % inhibition of control values
Procedure: as §1, §2, §3, §4, §5, §6

[27] = target: HGK (h) (MAP4K4) (Homo sapiens (Human), UniProt O95819); assay: Kinase selectivity panel: HGK (h) (MAP4K4); details: 10 μM in duplicate, read-out: % inhibition of control values
Procedure: as §1, §2, §3, §4, §5, §6

[28] = target: DLK1 (h) (MAP3K12) (Homo sapiens (Human), UniProt Q12852); assay: Kinase selectivity panel: DLK1 (h) (MAP3K12); details: 10 μM in duplicate, read-out: % inhibition of control values
Procedure: as §1, §2, §3, §4, §5, §6

[29] = target: IKKalpha (h) (Homo sapiens (Human), UniProt O15111); assay: Kinase selectivity panel: IKKalpha (h); details: 10 μM in duplicate, read-out: % inhibition of control values
Procedure: as §1, §2, §3, §4, §5, §6

[30] = target: IKKepsilon (h) (IKBKE) (Homo sapiens (Human), UniProt Q14164); assay: Kinase selectivity panel: IKKepsilon (h) (IKBKE); details: 10 μM in duplicate, read-out: % inhibition of control values
Procedure: as §1, §2, §3, §4, §5, §6

[31] = target: MYT1 kinase (h) (Homo sapiens (Human), UniProt Q99640); assay: Kinase selectivity panel: MYT1 kinase (h); details: 10 μM in duplicate, read-out: % inhibition of control values
Procedure: as §1, §2, §3, §4, §5, §6

[32] = target: NEK7 (h) (Homo sapiens (Human), UniProt Q8TDX7); assay: Kinase selectivity panel: NEK7 (h); details: 10 μM in duplicate, read-out: % inhibition of control values
Procedure: as §1, §2, §3, §4, §5, §6

[33] = target: AurB/Aur1 kinase (h) (Homo sapiens (Human), UniProt Q96GD4); assay: Kinase selectivity panel: AurB/Aur1 kinase (h); details: 10 μM in duplicate, read-out: % inhibition of control values
Procedure: as §1, §2, §3, §4, §5, §6

Src kinase (h), sequence (P12931 whole entry, looked up): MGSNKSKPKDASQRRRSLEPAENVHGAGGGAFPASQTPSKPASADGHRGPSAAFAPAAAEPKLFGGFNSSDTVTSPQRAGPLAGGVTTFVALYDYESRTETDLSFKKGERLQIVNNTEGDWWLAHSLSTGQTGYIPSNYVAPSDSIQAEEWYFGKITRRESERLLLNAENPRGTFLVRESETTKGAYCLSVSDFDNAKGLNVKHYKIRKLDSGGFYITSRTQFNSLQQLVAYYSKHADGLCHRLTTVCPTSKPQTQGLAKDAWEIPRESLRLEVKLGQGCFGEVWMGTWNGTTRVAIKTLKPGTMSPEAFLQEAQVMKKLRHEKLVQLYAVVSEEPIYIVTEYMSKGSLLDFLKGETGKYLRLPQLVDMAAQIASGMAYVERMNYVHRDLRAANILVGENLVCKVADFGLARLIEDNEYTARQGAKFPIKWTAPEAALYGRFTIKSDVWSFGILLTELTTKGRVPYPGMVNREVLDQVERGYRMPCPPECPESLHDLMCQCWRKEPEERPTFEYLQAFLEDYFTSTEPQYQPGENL
JAK2 (h), sequence (O60674 whole entry): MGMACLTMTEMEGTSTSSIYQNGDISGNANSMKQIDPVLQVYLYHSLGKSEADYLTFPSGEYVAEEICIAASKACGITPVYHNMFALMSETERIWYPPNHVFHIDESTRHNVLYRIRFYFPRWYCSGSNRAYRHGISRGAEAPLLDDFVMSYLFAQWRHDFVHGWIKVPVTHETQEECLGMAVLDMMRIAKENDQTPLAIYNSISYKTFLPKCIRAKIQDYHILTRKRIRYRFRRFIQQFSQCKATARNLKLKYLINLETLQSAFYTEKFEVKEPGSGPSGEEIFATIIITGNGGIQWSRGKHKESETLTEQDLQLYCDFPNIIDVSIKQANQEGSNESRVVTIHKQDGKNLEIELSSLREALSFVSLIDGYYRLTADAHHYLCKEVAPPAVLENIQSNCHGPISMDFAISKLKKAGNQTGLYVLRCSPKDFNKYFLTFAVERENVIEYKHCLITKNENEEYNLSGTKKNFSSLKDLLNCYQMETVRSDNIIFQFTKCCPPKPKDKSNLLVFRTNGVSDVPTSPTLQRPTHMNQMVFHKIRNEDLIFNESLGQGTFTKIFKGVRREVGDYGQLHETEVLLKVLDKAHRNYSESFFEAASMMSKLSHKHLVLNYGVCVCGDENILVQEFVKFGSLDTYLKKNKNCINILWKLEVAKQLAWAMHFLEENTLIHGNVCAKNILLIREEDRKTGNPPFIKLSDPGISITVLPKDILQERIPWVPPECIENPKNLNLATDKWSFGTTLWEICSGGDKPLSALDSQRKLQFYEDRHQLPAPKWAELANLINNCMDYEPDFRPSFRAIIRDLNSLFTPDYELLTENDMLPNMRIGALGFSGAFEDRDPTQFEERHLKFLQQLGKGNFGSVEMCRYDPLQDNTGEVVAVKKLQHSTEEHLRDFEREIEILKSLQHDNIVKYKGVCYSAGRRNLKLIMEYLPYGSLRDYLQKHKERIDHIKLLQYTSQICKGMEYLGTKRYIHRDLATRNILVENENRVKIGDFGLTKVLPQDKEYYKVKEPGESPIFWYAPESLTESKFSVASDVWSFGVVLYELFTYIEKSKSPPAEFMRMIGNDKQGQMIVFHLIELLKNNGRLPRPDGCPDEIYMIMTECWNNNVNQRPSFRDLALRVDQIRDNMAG
PhKgamma 2 (h), sequence (P15735 whole entry): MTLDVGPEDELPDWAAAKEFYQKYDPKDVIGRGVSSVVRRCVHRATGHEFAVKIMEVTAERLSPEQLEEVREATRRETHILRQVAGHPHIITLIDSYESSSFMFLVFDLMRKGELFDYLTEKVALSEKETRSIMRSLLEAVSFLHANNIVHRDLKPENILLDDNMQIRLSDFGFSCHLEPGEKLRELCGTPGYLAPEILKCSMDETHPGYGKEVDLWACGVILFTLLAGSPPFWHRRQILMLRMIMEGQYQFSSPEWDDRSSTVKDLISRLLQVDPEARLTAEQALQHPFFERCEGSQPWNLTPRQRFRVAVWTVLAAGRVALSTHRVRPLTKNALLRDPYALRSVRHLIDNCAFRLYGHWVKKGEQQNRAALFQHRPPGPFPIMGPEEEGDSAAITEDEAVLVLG
EphA4 kinase (h), sequence (P54764 20-986): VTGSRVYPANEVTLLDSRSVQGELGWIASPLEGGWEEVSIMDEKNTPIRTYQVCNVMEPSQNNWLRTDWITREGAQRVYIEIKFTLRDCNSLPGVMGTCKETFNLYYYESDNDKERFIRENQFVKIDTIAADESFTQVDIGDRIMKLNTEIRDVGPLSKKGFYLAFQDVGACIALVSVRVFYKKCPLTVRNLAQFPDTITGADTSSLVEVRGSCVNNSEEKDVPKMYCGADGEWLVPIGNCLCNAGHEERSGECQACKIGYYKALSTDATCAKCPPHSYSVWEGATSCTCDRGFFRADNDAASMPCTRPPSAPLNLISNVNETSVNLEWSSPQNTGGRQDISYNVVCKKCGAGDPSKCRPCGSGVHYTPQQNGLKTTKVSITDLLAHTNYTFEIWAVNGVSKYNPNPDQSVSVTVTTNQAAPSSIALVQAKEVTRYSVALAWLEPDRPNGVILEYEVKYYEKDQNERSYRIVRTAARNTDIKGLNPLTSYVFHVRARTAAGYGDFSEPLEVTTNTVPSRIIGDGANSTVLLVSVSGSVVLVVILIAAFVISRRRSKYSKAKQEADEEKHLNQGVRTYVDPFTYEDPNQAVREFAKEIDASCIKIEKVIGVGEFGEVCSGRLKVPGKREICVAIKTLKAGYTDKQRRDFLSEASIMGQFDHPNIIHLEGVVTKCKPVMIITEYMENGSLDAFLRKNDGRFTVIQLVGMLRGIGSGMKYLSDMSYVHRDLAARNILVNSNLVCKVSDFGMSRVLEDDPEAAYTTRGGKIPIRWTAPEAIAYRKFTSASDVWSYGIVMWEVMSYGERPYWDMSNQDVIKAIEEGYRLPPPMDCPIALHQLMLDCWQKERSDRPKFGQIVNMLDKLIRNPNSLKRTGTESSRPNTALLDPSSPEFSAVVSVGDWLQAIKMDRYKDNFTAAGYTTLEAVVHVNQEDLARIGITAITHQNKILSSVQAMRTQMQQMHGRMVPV
NEK7 (h), sequence (Q8TDX7 whole entry): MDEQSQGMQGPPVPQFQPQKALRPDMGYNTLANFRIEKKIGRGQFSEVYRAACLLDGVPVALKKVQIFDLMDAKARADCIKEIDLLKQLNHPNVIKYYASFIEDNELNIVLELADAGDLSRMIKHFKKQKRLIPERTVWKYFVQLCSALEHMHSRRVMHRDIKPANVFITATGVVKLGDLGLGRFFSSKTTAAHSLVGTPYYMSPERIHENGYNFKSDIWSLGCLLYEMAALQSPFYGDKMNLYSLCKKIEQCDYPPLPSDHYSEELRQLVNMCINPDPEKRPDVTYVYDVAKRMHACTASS
p38delta kinase (h), sequence (O15264 whole entry): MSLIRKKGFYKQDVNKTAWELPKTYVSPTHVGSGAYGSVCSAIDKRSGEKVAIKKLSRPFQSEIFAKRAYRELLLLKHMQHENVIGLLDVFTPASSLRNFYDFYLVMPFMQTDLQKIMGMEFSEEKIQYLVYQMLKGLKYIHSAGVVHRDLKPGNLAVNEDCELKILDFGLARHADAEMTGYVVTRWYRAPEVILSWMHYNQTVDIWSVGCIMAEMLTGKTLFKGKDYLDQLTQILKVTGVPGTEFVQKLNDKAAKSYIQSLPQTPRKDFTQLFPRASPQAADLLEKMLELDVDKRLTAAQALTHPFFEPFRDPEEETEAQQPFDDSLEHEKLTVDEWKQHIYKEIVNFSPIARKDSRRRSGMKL
FGFR4 kinase (h), sequence (P22455 22-802): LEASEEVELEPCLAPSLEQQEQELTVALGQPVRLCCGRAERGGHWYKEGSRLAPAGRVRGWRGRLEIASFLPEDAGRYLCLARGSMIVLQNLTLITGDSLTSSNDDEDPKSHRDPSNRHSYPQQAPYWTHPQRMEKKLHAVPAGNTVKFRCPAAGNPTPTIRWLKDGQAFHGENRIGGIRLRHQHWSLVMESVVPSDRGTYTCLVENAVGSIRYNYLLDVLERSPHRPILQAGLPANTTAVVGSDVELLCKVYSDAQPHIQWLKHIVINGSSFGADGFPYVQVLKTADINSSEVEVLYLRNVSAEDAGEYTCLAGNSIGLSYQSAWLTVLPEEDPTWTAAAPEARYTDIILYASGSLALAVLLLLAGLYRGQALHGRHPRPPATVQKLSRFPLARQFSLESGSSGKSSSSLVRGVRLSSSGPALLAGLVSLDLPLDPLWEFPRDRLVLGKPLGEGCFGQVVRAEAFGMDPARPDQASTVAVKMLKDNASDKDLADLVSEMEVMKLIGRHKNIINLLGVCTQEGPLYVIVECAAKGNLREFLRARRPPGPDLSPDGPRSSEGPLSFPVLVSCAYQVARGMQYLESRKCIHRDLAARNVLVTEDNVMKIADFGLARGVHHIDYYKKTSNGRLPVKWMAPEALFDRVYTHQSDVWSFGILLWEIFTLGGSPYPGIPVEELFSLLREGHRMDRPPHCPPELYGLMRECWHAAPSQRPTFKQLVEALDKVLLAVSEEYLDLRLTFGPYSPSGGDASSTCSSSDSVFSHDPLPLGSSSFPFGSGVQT
AurB/Aur1 kinase (h), sequence (Q96GD4 whole entry): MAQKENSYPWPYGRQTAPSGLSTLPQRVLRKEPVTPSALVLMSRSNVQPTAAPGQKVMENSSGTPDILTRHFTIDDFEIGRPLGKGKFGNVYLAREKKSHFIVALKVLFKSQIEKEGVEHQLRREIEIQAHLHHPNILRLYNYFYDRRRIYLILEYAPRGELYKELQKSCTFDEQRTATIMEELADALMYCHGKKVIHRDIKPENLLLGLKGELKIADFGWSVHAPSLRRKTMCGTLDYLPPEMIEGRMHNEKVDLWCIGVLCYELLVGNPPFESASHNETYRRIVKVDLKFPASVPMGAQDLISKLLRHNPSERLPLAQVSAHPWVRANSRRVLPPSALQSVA

COc1ccc2[nH]nc(C(=O)NCC3CCN(CCC(=O)O)CC3)c2c1 [Compound 3] was tested. Which inhibition at 10 µM [1] did it give?
The inhibition at 10 µM was 0%.

What about the inhibition at 10 µM [2] of the same molecule?
Its inhibition at 10 µM is 0%.

What about the inhibition at 10 µM [3] of the same molecule?
The inhibition at 10 µM was 0%.

And the inhibition at 10 µM [4]?
The inhibition at 10 µM was 0%.

What about the inhibition at 10 µM [5] of the same molecule?
Its inhibition at 10 µM is 0%.

What about the inhibition at 10 µM [6] of the same molecule?
The inhibition at 10 µM was 0%.

And the inhibition at 10 µM [7]?
Its inhibition at 10 µM is 0%.

And the inhibition at 10 µM [8]?
The inhibition at 10 µM was 0%.

What about the inhibition at 10 µM [9] of the same molecule?
Its inhibition at 10 µM is 89%.

What about the inhibition at 10 µM [10] of the same molecule?
Its inhibition at 10 µM is 51%.

What about the inhibition at 10 µM [11] of the same molecule?
Its inhibition at 10 µM is 0%.

And the inhibition at 10 µM [12]?
The inhibition at 10 µM was 8%.

And the inhibition at 10 µM [13]?
Its inhibition at 10 µM is 21%.

And the inhibition at 10 µM [14]?
Its inhibition at 10 µM is 9%.

And the inhibition at 10 µM [15]?
Its inhibition at 10 µM is 0%.

What about the inhibition at 10 µM [16] of the same molecule?
The inhibition at 10 µM was 0%.

And the inhibition at 10 µM [17]?
The inhibition at 10 µM was 0%.

What about the inhibition at 10 µM [18] of the same molecule?
The inhibition at 10 µM was 15%.

And the inhibition at 10 µM [19]?
Its inhibition at 10 µM is 3%.

And the inhibition at 10 µM [20]?
The inhibition at 10 µM was 0%.

What about the inhibition at 10 µM [21] of the same molecule?
The inhibition at 10 µM was 3%.

What about the inhibition at 10 µM [22] of the same molecule?
The inhibition at 10 µM was 1%.

And the inhibition at 10 µM [23]?
The inhibition at 10 µM was 0%.

And the inhibition at 10 µM [24]?
The inhibition at 10 µM was 0%.

And the inhibition at 10 µM [25]?
Its inhibition at 10 µM is 2%.

What about the inhibition at 10 µM [26] of the same molecule?
Its inhibition at 10 µM is 0%.

And the inhibition at 10 µM [27]?
Its inhibition at 10 µM is 3%.

What about the inhibition at 10 µM [28] of the same molecule?
The inhibition at 10 µM was 0%.

And the inhibition at 10 µM [29]?
The inhibition at 10 µM was 0%.

What about the inhibition at 10 µM [30] of the same molecule?
The inhibition at 10 µM was 0%.

What about the inhibition at 10 µM [31] of the same molecule?
Its inhibition at 10 µM is 2%.

What about the inhibition at 10 µM [32] of the same molecule?
The inhibition at 10 µM was 2%.

What about the inhibition at 10 µM [33] of the same molecule?
The inhibition at 10 µM was 0%.
